Reference: patent US20240287123A1 (Victoria Link Limited, priority 2021, published 2024)
Entries after “also recorded” stand apart in the source; their conditions may differ. Read-outs that look alike come from different tables or passages of the source.

Key:
[1] = system: HCMV (AD169 strain in HFF cells); assay: CPE (cytopathic effect) assay for HCMV; type: cell-based, Human Cytomegalovirus
Protocol: (§1) Human foreskin fibroblast (HFF) cells prepared from human foreskin tissue were obtained from the University of Alabama at Birmingham tissue procurement facility with approval from its IRB. The tissue was incubated at 4° C. for 4 h in Clinical Medium consisting of minimum essential media (MEM) with Earl's salts supplemented with 10% fetal bovine serum (FBS) (Hyclone, Inc. Logan UT), L-glutamine, fungizone, and vancomycin. Tissue was then placed in phosphate buffered saline (PBS), minced, rinsed to remove the red blood cells, and resuspended in trypsin/EDTA solution. The tissue suspension was incubated at 37° C. and gently agitated to disperse the cells, which were collected by centrifugation. Cells were resuspended in 4 ml Clinical Medium and placed in a 25 cm^2 flask and incubated at 37° C. in a humidified CO2 incubator for 24 h. The media was then replaced with fresh Clinical Medium and the cell growth was monitored daily until a confluent monolayer had formed. The HFF cells were then expanded through serial passages in standard growth medium of MEM with Earl's salts supplemented with 10% FBS, L-glutamine, penicillin, and gentamycin.
(§2) Akata cells were obtained from Louisiana State University, Baton Rouge, LA. The HCMV strain AD169 was obtained from the American Type Culture Collection (ATCC, Manassas, VA). Akata cells latently infected with EBV were obtained from Louisiana State University, Baton Rouge, LA.
(§3) Each experiment that evaluates the antiviral activity of compounds includes both positive and negative control compounds to ensure the performance of each assay. Concurrent assessment of cytotoxicity was also performed for each study in the same cell line and with the same compound exposure.
Assays were performed in monolayers as described.37 Cells were seeded in 384 well plates and incubated for 24 h to allow the formation of confluent monolayers. Dilutions of test drug were prepared directly in the plates and the monolayers infected at a predetermined MOI based on virus used. After incubation, cytopathology was determined by the addition of CellTiter-Glo (CTG) reagent. […] Toxicity was measured using CTG as above.

[2] = Cytotoxicity in HFF cells (CellTiter-Glo), concurrent with HCMV assay; type: cell-based; settings: human
Protocol: as §1, with “gentamycin. The cells were passaged routinely and used for assays at or below passage ^10.37,38” for “gentamycin.”
as §3
Assays were performed in monolayers as described.37 Cells were seeded in 384 well plates and incubated for 24 h to allow the formation of confluent monolayers. Dilutions of test drug were prepared directly in the plates and the monolayers infected at a predetermined MOI based on virus used. After incubation, cytopathology was determined by the addition of CellTiter-Glo (CTG) reagent. Concentrations of test compound sufficient to reduce CPE by 50% (EC50) or decrease cell viability by 50% (CC50) were interpolated using standard methods in Microsoft Excel. Toxicity was measured using CTG as above.

[3] = system: EBV (Akata/Akata); assay: EBV assay: viral DNA quantification in induced Akata cells; type: cell-based, Epstein-Barr virus; settings: for activity against EBV: cell-based assay, highest concentration tested in primary assays 50 μM; for EC50: human gammaherpesvirus 4, Akata
Protocol: as §2, §3
Assays for EBV were performed by reported methods.^37 Akata cells were induced to undergo a lytic infection with 50 μg/ml of a goat anti-human IgG antibody. Experimental compounds were diluted within plates. The cells were added and incubated for 72 h. Similar plates were initiated without virus induction/addition and used for measuring cytotoxicity by the addition of CTG. For all assays, the replication of the virus was assessed by the quantification of viral DNA. For EBV, primers 5′-[…]-3′ and 5′-CAG TTC CTC GCCTTAGGTTG-3 amplified a fragment corresponding to coordinates 96802-97234 in EBV genome (AJ507799). Compound concentrations sufficient to reduce genome copy number by 50% were calculated from experimental data as well as compound cytotoxicity.

[4] = Cytotoxicity in Akata cells (CTG), concurrent with EBV assay; type: cell-based; settings: human, Akata cells (without virus induction), Table 1
Protocol: as §3
Assays for EBV were performed by reported methods.^37 Akata cells were induced to undergo a lytic infection with 50 μg/ml of a goat anti-human IgG antibody. Experimental compounds were diluted within plates. The cells were added and incubated for 72 h. Similar plates were initiated without virus induction/addition and used for measuring cytotoxicity by the addition of CTG. For all assays, the replication of the virus was assessed by the quantification of viral DNA. […] Compound concentrations sufficient to reduce genome copy number by 50% were calculated from experimental data as well as compound cytotoxicity.

[5] = system: HIVADA; assay: HIV p24 alphaLISA in infected monocyte derived macrophages; type: cell-based, Human Immunodeficiency Virus; settings: 100 μM, infected MDM, days 2-7, compared with DMSO control
Protocol: Primary human MDMs were cultured from peripheral blood mononuclear cells and pre-treated for 24 h with ddhC (100 μM), compound 8 (100 μM), compound 21 (100 μM), emtricitabine control (15 μM, 10 μM, 1 μM, 0.1 μM), or the drug vehicle, DMSO. MDM were then infected with HIVADA in the presence of these compounds and treated daily (with compound), while culture supernatants were collected to quantify levels of HIV p24, a viral capsid protein, on days 2-7 of infection.
Leukopaks from healthy donors were obtained from the New York Blood Center and processed by Ficoll gradient centrifugation to isolate peripheral blood mononuclear cells (PBMC). These PBMC were cultured adherently into monocyte derived macrophages (MDM), according to published protocols, on 60 mm dishes for 6 days with 10-20 ng/ml macrophage colony stimulating factor (M-CSF). MDM were pre-treated with ddhC, compound 8, compound 21, emtricitabine (Cat. No .: 10071), or DMSO vehicle at indicated concentrations for 24 hours (NIH AIDS Reagent Program, Bethesda, MD). Cells were left uninfected or infected for 24 h in the presence of one of the compounds listed above with 20 ng/mL HIVADA, a macrophage-tropic HIV strain originally derived from a person with HIV (NIH). Media was changed daily with the mentioned compounds added each time, and supernatants were collected on days 2, 3, 4, 5, 6, and 7 of infection. Each treatment condition was analyzed in duplicate plates per experiment.
Supernatant samples were analyzed for the viral capsid protein, HIV p24, by a sensitive p24 alphaLISA according to the manufacturer's protocol (Perkin-Elmer, Waltham, MA). Treatment conditions were analyzed in duplicate plates, and each supernatant was analyzed in duplicate on a 96-well alphaLISA plate. These were then fit to a sigmoid standard curve to extrapolate HIV p24 levels in pg/mL within the assay limits of detection.

[6] = system: Zika virus; settings: Vero cells, 1 mM; cited from earlier work
[7] = Human betaherpesvirus 5, AD169 strain in HFF cells, Table 1, read-out: HCMV EC50
[8] = Akata/Akata, Table 1, read-out: EBV EC50
[9] = read-out: Result for compound (EC50/UM), EBV Akata/Akata, assay order Primary

Work on `CC(C)C(=O)OCC1=C[C@@H](O)[C@H](n2ccc(NO)nc2=O)O1` [Compound 10, 3′-Deoxy-3′,4′-didehydro-4-N-hydroxy-5′-O-isobutyroyl-cytidine] yielded an EC50 ([1]; Human betaherpesvirus 5, AD169, HFF, approximate, read-out: EC50 against HCMV) of about 0.03 µM, an EC50 [1, 7] of 0.03 µM and a CC50 [2] of over 50 µM. The “activity against EBV” value [3] was “slightly diminishes the activity”, the EC50 [3, 8] was 29.9 µM and the EC50 [3, 9] was 29.9 µM. The EC50 ([3]; read-out: EC50 against EBV) was 7.6 to 38.7 µM and the CC50 at 72 h [4] was over 50 µM.
For `Nc1nc(O)c2ncn(COC(CO)CO)c2n1` [Ganciclovir, ganciclovir, reference compound], the EC50 ([1]; Human betaherpesvirus 5, AD169, HFF, read-out: HCMV EC50) was 0.55 µM and the CC50 ([2]; HFF cells, Table 1, read-out: HCMV CC50) was over 150 µM.
For `Nc1ccn([C@@H]2OC(CO)=C[C@H]2O)c(=O)n1` [ddhC, 3′-Deoxy-3′,4′-didehydro-cytidine, reference compound], the “antiviral activity against HCMV” value [1] was “does not display antiviral activity”, the EC50 [1, 7] was over 50 µM and the CC50 [2] was over 50 µM. For the same molecule, the “activity against EBV” value [3] was “five-fold less active than compound 8; also recorded: only weakly inhibited”, the EC50 [3, 8] was 38.7 µM and the EC50 [3, 9] was 38.7 µM. The EC50 ([3]; read-out: EC50 against EBV) was 7.6 to 38.7 µM, the CC50 at 72 h [4] was over 50 µM and the “levels of HIV p24 viral capsid protein” value [5] was “no reduction”. The Zika virus proliferation [6] was “reduce Zika virus proliferation”.
